We go through 9 compounds from ChEMBL document CHEMBL3045899, “New asperxanthone and asperbiphenyl from the marine fungus Aspergillus sp” (2009).

Molecules are shown by their SMILES.

For the test, the system named is Tobacco mosaic virus. As to the kind of experiment: Inhibitory activity against Tobacco mosaic virus (TMV) inoculated in Nicotiana tabacum L. cv.K326 leaf assessed as inhibition of virus multiplication at 0.2 mg/ml measured by leaf disk method (reference value: 0%). In kind it is functional.

Take `CCCCCCCC/C=C/C=C/CCCCCCCCCCCCCCCCCCCCCC(=O)OC(CO)CO`: the inhibition at 200 µg/mL is 16.3%.
Then `CCCCCCCC/C=C/C=C/CCCCCCCCCCCCCC/C=C/C=C/CCCC(=O)OC(CO)CO`, with 14.3%; and `CCCCCCCCCCCCCCCCCCCCCCCCCC/C=C/C=C/C=C/CCC(=O)OC(CO)CO`, with 13.9%; and `CCCCCCCC/C=C/C=C/CCCCCCCCCCCCCC/C=C/C=C/CCCC(=O)OCC(O)CO` (centres undefined), with 17.4%.
Regarding `CCCCCCCCCC/C=C/C=C/CCCC(=O)OCC(O)CO` (centres undefined), the inhibition at 200 µg/mL came out at 12.5%.
As for `CCCCCCCCCCC/C=C/C=C/CCCC(=O)OCC(O)CO` (centres undefined), the figure is 14.9%; as for `CCCCCCC/C=C/C=C/CCCC(=O)OC(CO)CO`, 14.2%; as for `Cc1c(O)c(-c2c(O)c(C)c3c(c2O)CO[C@H](C)[C@H]3C)c(O)c2c1[C@@H](C)[C@H](C)OC2` [ASPERBIPHENYL], 35.5%.
Then `COc1cc2oc3cccc(O)c3c(=O)c2c2c1[C@@H]1C=CO[C@@H]1O2` [ASPERXANTHONE], with 62.9%.

A word on the inhibition: it is the change of the read-out against control, counted positive when it falls.
